Results on eleven molecules are retold here after ChEMBL document CHEMBL1201862, “PubChem BioAssay data set” (2004).

Among the test systems are M19-MEL; KM-20L2; SNB-78; DMS-273; DLD-1; DMS-114; HOP-18; XF498.
What all share (test): NCI-60 cell line screen, 48 h

Structures are written as SMILES.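 Growth conditions: 96-well plates. Treatment: test compound, 48 hours, 5 concentrations. Analysis: linear interpolation between bracketing concentrations; unreached endpoints set to highest concentration. GI50 is the concentration that inhibits growth by half.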 Calls of active or inactive are those of the source. Rule as the data show it: active = GI50 up to about 1.1 µM and inactive = higher.

Regarding `CCCCc1c2c(nc3c1CC/C(=C\c1ccc([N+](=O)[O-])cc1)C3=O)CCCC2`, the GI50 is 2.29 µM (inactive) with M19-MEL; 2.01 µM (inactive) in the assay on KM-20L2; 1.96 µM (inactive) in the assay with SNB-78; 1.76 µM (inactive) with DMS-273; 1.75 µM (inactive) with DLD-1; 2.1 µM (inactive) with DMS-114.

Take `C/C(=C\CBr)CCC(Br)C(C)(C)Cl` (centres undefined): the GI50 with M19-MEL, in the assay on HOP-18, in the assay with SNB-78, in the assay with DMS-273, in the assay on DLD-1 and in the assay on DMS-114 was > 100 µM (inactive) in each case.

Regarding `O=C1NC2(CCCCC2)C2CCCCC=C12` (centres undefined), the GI50 in the assay with M19-MEL, in the assay on XF498, with HOP-18, in the assay on SNB-78, in the assay on DMS-273 and in the assay with DLD-1 was > 100 µM (inactive) throughout. In addition, the GI50 in the assay on DMS-114 is > 100 µM (inactive).

Regarding `COc1cc(OC(C)=O)cc2c(OC(C)=O)ccc(OC(C)=O)c12`, the GI50 with KM-20L2 and with SNB-78 was > 100 µM (inactive) throughout.

As to `Cc1cc(NC(=O)NC(=O)c2ccccc2N)ccc1Oc1ncc(Br)cn1`, the GI50 with M19-MEL was 0.0231 µM (active); in the assay on XF498, 0.0334 µM (active); in the assay with KM-20L2, 0.016 µM (active); in the assay with HOP-18, 28.8 µM (inactive); with DMS-273 it was < 0.0316 µM (active); with DLD-1, < 0.0161 µM (active). In addition, the GI50 in the assay with DMS-114 is < 0.01 µM (active).

Take `COc1cccc(/C=N\NC(=O)C(C)SC(C)C(=O)N/N=C/c2cccc(OC)c2)c1` (centres undefined): the GI50 in the assay on M19-MEL was > 63.4 µM (inactive); with XF498, 53.1 µM (inactive); in the assay on KM-20L2, 47 µM (inactive); in the assay on SNB-78, 36 µM (inactive); in the assay with DMS-273, 33 µM (inactive); in the assay on DLD-1, 58.2 µM (inactive). The GI50 with DMS-114 was 19.4 µM (inactive).

Take `N=C(N)N/N=C/c1oc(-c2ccc(S(=O)(=O)O)o2)c(-c2ccc(S(=O)(=O)O)o2)c1[N+](=O)[O-]`: the GI50 in the assay with M19-MEL, in the assay on KM-20L2, with HOP-18, with DMS-273, in the assay on DLD-1 and in the assay on DMS-114 was > 100 µM (inactive) throughout.

Regarding `COc1cc(C(=O)C/C(CCC(=O)Nc2ccc(Cl)cc2C)=N/NC(=O)C(N)=O)ccc1O`, the GI50 in the assay with M19-MEL, with XF498, with KM-20L2, with HOP-18, in the assay with SNB-78 and in the assay with DMS-273 was > 100 µM (inactive) each time. Also, the GI50 in the assay with DLD-1 and with DMS-114 was > 100 µM (inactive) each time.

With `O=C(CSC(=S)N1CCCCC1)Nc1nc2c(s1)CCCC2`, the GI50 in the assay with M19-MEL is 32.9 µM (inactive); in the assay with XF498, 19.3 µM (inactive); in the assay with KM-20L2 it was 46 µM (inactive); with SNB-78, > 100 µM (inactive); in the assay on DMS-273, 49.4 µM (inactive); with DLD-1 it was 26.9 µM (inactive). Further, the GI50 in the assay on DMS-114 was 53.2 µM (inactive).

As to `CCCCn1c(-c2ccccc2)cs/c1=N\NC(=O)Cn1c(C)nc2ccccc21`, the GI50 with M19-MEL was 30.4 µM (inactive); with XF498 it was 31.9 µM (inactive); with KM-20L2, 84.9 µM (inactive); in the assay with HOP-18, > 100 µM (inactive); with SNB-78 it was > 100 µM (inactive); in the assay on DMS-273, 76 µM (inactive). Also, the GI50 in the assay on DLD-1 was > 100 µM (inactive).

Consider `C=C(C)C12CC3CC(/C(=N/O)C(C1)/C3=N\O)[C@@]2(C)O` (some centres undefined), for which the GI50 with M19-MEL, in the assay on KM-20L2, with SNB-78, with DMS-273, in the assay with DLD-1 and with DMS-114 was > 100 µM (inactive) in each case.
